“Also recorded” adds a separate entry of the source.
What was measured:
[1] = molecular target: T1, endogenously expressed SERT (Mus musculus, UniProt Q60857); assay: two-photon microscopy of acute mouse brain slices; details: for staining of acute mouse brain slices (DS, SNr, DR): 500 nM, 30 min, reduced by escitalopram or paroxetine
T1 construct: label endogenously expressed SERT; from tissue; host or cells: acute coronal brain slices of C57/BL-6 and Pet1-eYFP mice (dorsal striatum, substantia nigra reticulata, dorsal raphe)
T1 sequence (Q60857 whole entry): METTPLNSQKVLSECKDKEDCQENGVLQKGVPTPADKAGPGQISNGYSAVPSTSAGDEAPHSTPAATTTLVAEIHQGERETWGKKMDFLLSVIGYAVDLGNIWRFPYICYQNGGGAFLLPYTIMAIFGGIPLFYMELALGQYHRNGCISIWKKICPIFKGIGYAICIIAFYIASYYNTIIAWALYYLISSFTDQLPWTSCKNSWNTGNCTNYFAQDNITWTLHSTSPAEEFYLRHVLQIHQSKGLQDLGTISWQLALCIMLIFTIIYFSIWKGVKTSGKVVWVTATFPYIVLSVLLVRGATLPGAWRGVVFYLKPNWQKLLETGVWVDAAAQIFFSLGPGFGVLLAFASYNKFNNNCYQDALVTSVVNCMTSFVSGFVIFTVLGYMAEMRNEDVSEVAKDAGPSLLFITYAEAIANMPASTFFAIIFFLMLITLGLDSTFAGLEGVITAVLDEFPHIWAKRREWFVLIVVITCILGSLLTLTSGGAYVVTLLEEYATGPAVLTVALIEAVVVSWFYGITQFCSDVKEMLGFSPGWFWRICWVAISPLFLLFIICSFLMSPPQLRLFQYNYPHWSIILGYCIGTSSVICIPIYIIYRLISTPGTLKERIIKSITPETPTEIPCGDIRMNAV
Excerpt: All animal protocols were approved by the Institutional Animal Care and Use Committee (IACUC) of Columbia University, following guidelines established in the NIH Guide for the Care and Use of Laboratory Animals. All animals were caged in groups of 5 or less in a 12-hr light/dark cycle with access to food and water ad libitum.
Acute mouse brain slices preparation
Wild-type C57/BL-6 (The Jackson Laboratory, Bar Harbor, ME) and Pet1-eYFP mice were sacrificed by cervical dislocation at ages > 12 weeks. Pet1-eYFP mice (Cg-Tg(Fev-cre)1Esd/J (ePet-cre; The Jackson Laboratory) crossed with Ai32(RCLChR2(H134R)/EYFP (Ai32; The Jackson Laboratory) maintained on a 129SvEv/Tac background) were kindly provided by Dr. Mark S. Ansorge (Columbia University Irving Medical Center; Department of Psychiatry, New York, NY 10032). Mice were decapitated, and the brain was removed and placed in an ice-cold sucrose cutting solution. Coronal brain slices with 300 µm thickness were prepared using a Leica VT1200 vibratome at 0 – 4 °C. Slices containing the striatum, substantia nigra, and the raphe were transferred to oxygenated ACSF solution and allowed to equilibrate at room temperature.
Slices were incubated with PyrAte-(S)-citalopram conjugates (500 nM in ACSF) for 30 minutes at room temperature. For inhibition experiments, escitalopram (2 µM) and paroxetine (30 µM) were incubated for 15 minutes prior to addition of the test compound. Each slice was then transferred to an imaging chamber and held in place by a stainless-steel slice anchor (Warner Instruments). ACSF solutions containing the test compounds were continuously perfused throughout the imaging experiments. Structures at depths between 20 to 30 µm from the top of the slice were visualized with fluorescent signals using a Prairie Ultima multi-photon microscopy sytem: PyrAte was imaged using 810 nm excitation wavelength and 525/50 nm emission filter, eYFP was imaged using 965 nm excitation wavelength and 525/50 nm emission filter. Images were captured using Prairie View software and processed with ImageJ. Further co-localization analysis was performed using the JACoP plug-in.1 Statistical and data analysis
Data treatment and statistical analysis were performed using Microsoft Excel 2016 and GraphPad Prism v10.0. Data and statistical tests as shown in Figure 2 include individual points, mean, SEM, and P = 0.0023 as determined using two-tailed, paired t-test (t = 5.690, df = 5). Data and statistical tests as shown in Figure 5 include individual values, mean, SEM, and P values as determined using two-tailed unpaired t-test with Welch’s corrections (Fig. 5A: P = 0.0166, t = 4.665, df = 3.157; Fig. 5B: P =

[2] = molecular target: T2, mCherry-SERT-expressing HEK293 cells (Homo sapiens, UniProt P31645); assay: confocal microscopy of membrane staining; type: cell-based; details: for membrane staining of mCherry-SERT HEK293 cells: 20 nM
T2 construct: expressed in transfected cells
T2 sequence (P31645 whole entry): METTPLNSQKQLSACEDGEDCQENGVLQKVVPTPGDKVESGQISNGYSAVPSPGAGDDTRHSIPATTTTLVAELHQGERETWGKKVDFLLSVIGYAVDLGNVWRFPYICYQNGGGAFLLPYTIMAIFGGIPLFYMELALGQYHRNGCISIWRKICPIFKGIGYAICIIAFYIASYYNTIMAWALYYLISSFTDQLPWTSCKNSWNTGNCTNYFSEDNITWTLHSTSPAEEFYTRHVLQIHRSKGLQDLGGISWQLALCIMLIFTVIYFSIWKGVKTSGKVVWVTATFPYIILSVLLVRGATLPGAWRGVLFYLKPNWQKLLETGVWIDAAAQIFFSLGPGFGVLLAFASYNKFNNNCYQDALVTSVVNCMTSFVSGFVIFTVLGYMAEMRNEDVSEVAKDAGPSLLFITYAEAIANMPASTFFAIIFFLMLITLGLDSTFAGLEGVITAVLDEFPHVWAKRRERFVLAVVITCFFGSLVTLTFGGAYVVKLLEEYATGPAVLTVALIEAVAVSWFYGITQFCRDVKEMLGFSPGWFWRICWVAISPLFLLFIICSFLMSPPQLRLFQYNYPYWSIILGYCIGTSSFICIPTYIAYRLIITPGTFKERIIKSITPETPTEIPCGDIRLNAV
Method: Prior to imaging, cell culture medium was replaced with pre-warmed KHB. HEK293 cells expressing mCherry-SERT were imaged using a Nikon A1R laser scanning confocal microscope equipped with a GaAsP detector, using a 60× oil-immersion objective. PyrAtes dissolved in DMSO were diluted in KHB (0.1% v/v) to make solutions with the desired final concentration (20 nM, 100 nM), which were added to each well containing the cells. To test specific binding, cells were pre-incubated with 10 – 30 µM paroxetine for 10 minutes. PyrAtes were excited using a 405 nm laser, and its fluorescent signals collected using 525/50 nm emission filters; mCherry was excited using a 561 nm laser, and fluorescence was collected using 595/50 nm emission filters. Images were captured prior to and at specific time points after addition of the PyrAte compounds using NIS-Elements software. […]
Cells were voltage-clamped (−60 mV) and continuously superfused with a physiological external solution containing 140mM NaCl, 2.5 mM CaCl2,2mM MgCl2, 20mM glucose and 10mM HEPES, pH= 7.4. Micropipettes were made from borosilicate glass capillaries with a resistance ranging from 2.5 – 6 MΩ using a P-97 micropipette puller (Sutter Instrument), which were then filled with an internal solution containing 133mM K-gluconate, 6mM NaCl, 1mM CaCl2, 0.7 mM MgCl2, 10mM HEPES, 10mM EGTA, pH= 7.2. For the measurements we used an amplifier […] and pClamp 11.2 software (MDS Analytical Technologies, Sunnyvale, CA, USA). The compounds were diluted the day of the experiments in external solutions and applied using a DAD-12 superfusion system with a 8-tube perfusion manifold (ALA Scientific Instruments, Farmingdale, NY, USA), guaranteeing rapid solution exchange. Current traces were filtered at 1 kHz and digitized at 10 kHz using a Digidata 1550 (MDS Analytical Technologies). […]

| Structure (SMILES) | staining of acute mouse brain slices (DS, SNr, DR) [1] | Pearson's correlation coefficient r, co-localization with eYFP-expressing serotonergic projections ([1]; DS, Pet1-eYFP mice) | Pearson's correlation coefficient r, co-localization with eYFP-expressing serotonergic projections ([1]; DS, in the presence of paroxetine) | Pearson's correlation coefficient r, co-localization with eYFP-expressing serotonergic projections ([1]; SNr, Pet1-eYFP mice) | Pearson's correlation coefficient r, co-localization with eYFP-expressing serotonergic projections ([1]; SNr, in the presence of paroxetine) | membrane staining of mCherry-SERT HEK293 cells ([2]; 60 min incubation, absent with paroxetine) | membrane staining of mCherry-SERT HEK293 cells ([2]; 30 min incubation, blocked by 30 μM paroxetine) | staining of mCherry-SERT HEK293 cells ([2]; 100 nM) |
| --- | --- | --- | --- | --- | --- | --- | --- | --- |
| CCN(CC)c1ccc(-c2cc[n+]3c(-c4ccccc4)c(N4CCCC4)n(CCCC(=O)NCc4ccc5c(c4)CO[C@@]5(CCCN(C)C)c4ccc(F)cc4)c3c2)cc1 [PYR-C3-CIT, PyrAte-C3-(S)-citalopram] | localization of the compound in serotonergic regions in the DS and SNr | 0.70 | 0.43 | 0.72 | 0.58 | enhanced co-localization of PyrAte and mCherrySERT signals and no internalization; also recorded: SERT-specific membrane staining |  |  |
| CCN(CC)c1ccc(-c2cc[n+]3c(-c4ccccc4)c(N4CCCC4)n(CCCCCCC(=O)NCc4ccc5c(c4)CO[C@@]5(CCCN(C)C)c4ccc(F)cc4)c3c2)cc1 [PYR-C6-CIT, PyrAte-C6-(S)-citalopram] | effectively stains all three areas examined; also recorded: SERT-specific staining in acute mouse brain slices |  |  |  |  |  | binds specifically to membrane-expressed SERT; also recorded: SERT-specific membrane staining | mitochondrial staining |

Reference: article PMC11891579, “Fluorescent PyrAte-(S)-citalopram conjugates enable imaging of the serotonin transporter in living tissue” (Chemical Science, 2025)
